Reference: patent US8071645B2, “Systems and methods for treating human inflammatory and proliferative diseases and wounds, with fatty acid metabolism inhibitors and/or glycolytic inhibitors” (The Regents of the University of Colorado, priority 2003, dated 2011)

What was measured:
HL60 MDR tumor = HL60 MDR tumor implanted in nude mice, tumor volume; assay type: in vivo
Description: Tumor implantation. Mice were purchased from the Animal Production Program of National Cancer Institute, Frederick, Md. The animals used were Athymic Ncr-nu/nu (strain code 01B74). HL60 MDR cells were harvested and reconstituted at 1 million cells per 100 microliters of phosphate buffered saline. One million tumor cells per injection site were implanted subcutaneously on two sites of the animal's back. Treatments began at exactly seven days post tumor implantation. Tumor size/volume was monitored twice weekly using measurement calipers, with the formula Tumor Volume=π×(short diameter)^2×(long diameter)/6.
Mice experiments with fatty acid metabolism and glycolytic inhibitors. Fatty acid metabolism inhibitors were exemplified by etomoxir at 200 micrograms/day. Glycolytic inhibitors were exemplified by 2-deoxy-D-glucose at 2.5 mM in 100 microliters daily. The combination was administered daily, etomoxir at 200 micrograms and 2-deoxy-D-glucose at 2.5 mM in 100 microliters. All drugs were administered intra-peritoneally. 5-Fluoro-uracil, at 20 mg per kilogram mouse, was injected intra-peritoneally once a week
HL60 MDR human leukemia cells were cultured and implanted in nude mice as described above under “Materials and Methods”. The mice were given 200 ug of Etomoxir, 2.5 mM 2-Deoxy-D-glucose, or both 200 ug of Etomoxir and 2.5 mM 2-Deoxy-D-glucose given daily by IP injection. Treatment began exactly one week after tumor implantation.

B16F1 melanoma cells = experiment: mitochondrial membrane potential (Mitotracker Red) of B16F1 melanoma cells; assay type: cell-based; conditions: 48 hours, FIG. 20
Procedure: Metabolic Activity Assay. Cells were prepared as previously described. The specific metabolic dye was added and mixed into the cell suspension. This plate was then placed into the 37° incubator for a 20-minute incubation. After incubation, the cells were centrifuged at 300×g for 5 minutes, and the supernatant was removed. The cells were then washed once with PBS/2.5% FBS and transferred into flow cytometric tubes containing 500 μL of PBS/2.5% FBS for analysis
MitoTracker Red CM-H2XROS (Molecular Probes). One vial of MitoTracker Red provides 10 tests and contains 50 μg. This is unstable and can't be stored. Therefore, when each vial was opened, 43 μL of Dimethysulfoxide (DMSO) were added. […]
Geometric Mean Fluorescence. […] Once the stained sample was plotted against the control (isotype or unstained), geometric mean fluorescence values were obtained for both histogram peaks. The stained control sample value was subtracted from sample to identify the actual fluorescence of the stained sample over that of the control.
B16F1 melanoma cells of Example 12 were untreated or treated with etomoxir at the indicated concentrations for 48 hours. Cells were harvested, stained with Mitotracker Red (Molecular Probes) as described in Materials and Methods, and analyzed by flow cytometry. The value of Mitotracker Red was then calculated as described in Materials and Methods. […]

[1] = test system: cell surface UCP2 on A-204 human rhabdomyosarcoma cells; experiment: cell surface UCP2 expression on A-204 cells by flow cytometry; assay type: cell-based; conditions: 24, 48, & 72 hours, FIG. 26
Procedure: Cell Surface Staining. Non-permeabilized cells were stained with antibodies to the cell surface receptors Fas (CD95) (Pharmingen) or with antibodies to uncoupling proteins (anti-UCP2 antibody) (Alpha Diagnostic International). Antibodies for both the isotype control and actual stain were added to the cell suspension, mixed, and then placed on ice for and incubation of 25 minutes in the dark. Subsequently the cells were centrifuged at 300×g for 5 minutes and the supernatant removed. The cells were washed one time with 100 μL of PBS/2.5% FBS and then transferred into flow cytometric tubes containing 500 μL of PBS/2.5% FBS for analysis.
A204 human rhabdomyosarcoma cells were cultured at a concentration of 0.5 to 1 million cells per ml. Cells were untreated or treated with etomoxir at concentrations indicated in FIG. 24 for 24, 48, & 72 hours. Cells were harvested and analyzed by flow cytometry. Dot plots are shown in FIG. 24 as functions of live versus dead cells. […] Five thousand cells were assessed for forward scatter (FS), as a function of cell size, versus side scatter (SS), as a function of cellular granularity. […]
Cells were untreated or treated with etomoxir at the concentration indicated in FIG. 26 at the indicated concentration for 24, 48, & 72 hours. Cells were harvested, stained with fluorochrome conjugated with anti-UCP2 antibody and analyzed by flow cytometry.

CCOC(=O)C1(CCCCCCOc2ccc(Cl)cc2)CO1 (stereo not shown) [etomoxir, 2-(6-(4-chlorophenoxy)-hexyl)-oxirane-2-carboxylic acid ethyl ester]
tumor growth versus control (HL60 MDR tumor; 21 day period, single agent): increase in tumor growth
tumor volume, Day 7 (HL60 MDR tumor; Day 7 after implantation (start of treatment), 200 ug Etomoxir and/or 2.5 mM 2-Deoxy-D-glucose daily IP): 36 mm^3
tumor volume, Day 9 (HL60 MDR tumor; Day 9, 200 ug Etomoxir and/or 2.5 mM 2-Deoxy-D-glucose daily IP): 71.73 mm^3
tumor volume, Day 15 (HL60 MDR tumor; Day 15, 200 ug Etomoxir and/or 2.5 mM 2-Deoxy-D-glucose daily IP): 261.35 mm^3
tumor volume, Day 21 (HL60 MDR tumor; Day 21, 200 ug Etomoxir and/or 2.5 mM 2-Deoxy-D-glucose daily IP): 895.09 mm^3
mitochondrial membrane potential as measured by Mitotracker Red (B16F1 melanoma cells): increase
cell surface UCP2 expression in the live cells [1]: time dependent “fold” increases
